# According to patent US12091405B2, “Substituted pyrazole compounds as indoleamine 2,3-dioxygenase inhibitors” (Merck Sharp & Dohme LLC, priority 2018, dated 2024):
# Biological target: IDO1 (Homo sapiens, UniProt P14902)
# Assay: IDO1 Cellular Assay in HeLa Cells Stimulated with IFNγ
# Assay type: cell-based
# Settings: IFNγ 100 ng/mL, 300 uM L-tryptophan, about 48 hours, fluorescence readout, read-out: IDO1 HELA Cell Assay, IC50
# Chain of IDO1 (P14902 whole entry): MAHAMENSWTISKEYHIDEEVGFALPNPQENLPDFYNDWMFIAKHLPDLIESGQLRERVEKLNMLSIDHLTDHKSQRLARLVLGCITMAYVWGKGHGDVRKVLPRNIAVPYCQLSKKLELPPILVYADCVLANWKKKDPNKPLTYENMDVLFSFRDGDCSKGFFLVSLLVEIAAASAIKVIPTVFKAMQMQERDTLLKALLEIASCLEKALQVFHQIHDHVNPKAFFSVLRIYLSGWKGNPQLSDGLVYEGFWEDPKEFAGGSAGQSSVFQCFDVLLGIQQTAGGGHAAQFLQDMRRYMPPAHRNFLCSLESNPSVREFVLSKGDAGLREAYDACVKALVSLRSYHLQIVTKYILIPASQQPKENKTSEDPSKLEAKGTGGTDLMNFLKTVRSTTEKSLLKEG
row,Compound,IC50
1,"COc1c(F)cc(C2CCN(C(=O)Cn3nc(C(=O)N4C[C@@H](C)O[C@@H](C)C4)c4c3CCC4)CC2)cc1Cl [Example 95, 1-[4-(3-chloro-5-fluoro-4-methoxyphenyl)piperidin-1-yl]-2-{3-[(2R,6S)-2,6-dimethylmorpholine-4-carbonyl]-5,6-dihydrocyclopenta[c]pyrazol-1(4H)-yl}ethan-1-one]",19.3 nM
2,"CCc1cccc(C2CCN(C(=O)Cn3nc(C(=O)N4C[C@@H](C)O[C@@H](C)C4)c4c3CCC4)CC2)c1 [Example 96, 2-{3-[(2R,6S)-2,6-dimethylmorpholine-4-carbonyl]-5,6-dihydrocyclopenta[c]pyrazol-1(4H)-yl}-1-[4-(3-ethylphenyl)piperidin-1-yl]ethan-1-one]",21.5 nM
3,"C[C@@H]1CN(C(=O)c2nn(CC(=O)N3CCC(c4cccc(F)c4Cl)CC3)c3c2CCC3)C[C@H](C)O1 [Example 97, 1-[4-(2-chloro-3-fluorophenyl)piperidin-1-yl]-2-{3-[(2R,6S)-2,6-dimethylmorpholine-4-carbonyl]-5,6-dihydrocyclopenta[c]pyrazol-1(4H)-yl}ethan-1-one]",24.1 nM
4,"Cc1ccc(F)cc1C1CCN(C(=O)Cn2nc(C(=O)N3C[C@@H](C)O[C@@H](C)C3)c3c2CCC3)CC1 [Example 98, 2-{3-[(2R,6S)-2,6-dimethylmorpholine-4-carbonyl]-5,6-dihydrocyclopenta[c]pyrazol-1(4H)-yl}-1-[4-(5-fluoro-2-methylphenyl)piperidin-1-yl]ethan-1-one]",27.1 nM
5,"C[C@@H]1CN(C(=O)c2nn(CC(=O)N3CCC(c4cc(F)cc(Cl)c4)CC3)c3c2CCC3)C[C@H](C)O1 [Example 99, 1-[4-(3-chloro-5-fluorophenyl)piperidin-1-yl]-2-{3-[(2R,6S)-2,6-dimethylmorpholine-4-carbonyl]-5,6-dihydrocyclopenta[c]pyrazol-1(4H)-yl}ethan-1-one]",27.4 nM
6,"C[C@@H]1CN(C(=O)c2nn(CC(=O)N3CCC(c4ccc(F)c(Cl)c4)CC3)c3c2CCC3)C[C@H](C)O1 [Example 100, 1-[4-(3-chloro-4-fluorophenyl)piperidin-1-yl]-2-{3-[(2R,6S)-2,6-dimethylmorpholine-4-carbonyl]-5,6-dihydrocyclopenta[c]pyrazol-1(4H)-yl}ethan-1-one]",27.7 nM
7,"C[C@@H]1CN(C(=O)c2nn(CC(=O)N3CCC(c4cc(F)c(Cl)c(F)c4)CC3)c3c2CCC3)C[C@H](C)O1 [Example 101, 1-[4-(4-chloro-3,5-difluorophenyl)piperidin-1-yl]-2-{3-[(2R,6S)-2,6-dimethylmorpholine-4-carbonyl]-5,6-dihydrocyclopenta[c]pyrazol-1(4H)-yl}ethan-1-one]",27.9 nM
8,"COc1c(C)cc(C2CCN(C(=O)Cn3nc(C(=O)N4C[C@@H](C)O[C@@H](C)C4)c4c3CCC4)CC2)cc1C [Example 102, 2-{3-[(2R,6S)-2,6-dimethylmorpholine-4-carbonyl]-5,6-dihydrocyclopenta[c]pyrazol-1(4H)-yl}-1-[4-(4-methoxy-3,5-dimethylphenyl)piperidin-1-yl]ethan-1-one]",28.9 nM
9,"C[C@@H]1CN(C(=O)c2nn(CC(=O)N3CCC(c4cccc(C5CC5)c4)CC3)c3c2CCC3)C[C@H](C)O1 [Example 103, 1-[4-(3-cyclopropylphenyl)piperidin-1-yl]-2-{3-[(2R,6S)-2,6-dimethylmorpholine-4-carbonyl]-5,6-dihydrocyclopenta[c]pyrazol-1(4H)-yl}ethan-1-one]",29.6 nM
10,"C[C@@H]1CN(C(=O)c2nn(CC(=O)N3CCC(c4cccc(C(F)(F)F)c4F)CC3)c3c2CCC3)C[C@H](C)O1 [Example 104, 2-{3-[(2R,6S)-2,6-dimethylmorpholine-4-carbonyl]-5,6-dihydrocyclopenta[c]pyrazol-1(4H)-yl}-1-{4-[2-fluoro-3-(trifluoromethyl)phenyl]piperidin-1-yl}ethan-1-one]",29.8 nM
